# Data: patent US20260124201A1, “CYCLOPENTANE COMPOUND” (Kissei Pharmaceutical Co., Ltd., priority 2022, published 2026)
# Biological target: T1, human OX2R (Homo sapiens, UniProt O43614)
# T1 construct: expressed in transfected cells
# T1 sequence (O43614 1-444): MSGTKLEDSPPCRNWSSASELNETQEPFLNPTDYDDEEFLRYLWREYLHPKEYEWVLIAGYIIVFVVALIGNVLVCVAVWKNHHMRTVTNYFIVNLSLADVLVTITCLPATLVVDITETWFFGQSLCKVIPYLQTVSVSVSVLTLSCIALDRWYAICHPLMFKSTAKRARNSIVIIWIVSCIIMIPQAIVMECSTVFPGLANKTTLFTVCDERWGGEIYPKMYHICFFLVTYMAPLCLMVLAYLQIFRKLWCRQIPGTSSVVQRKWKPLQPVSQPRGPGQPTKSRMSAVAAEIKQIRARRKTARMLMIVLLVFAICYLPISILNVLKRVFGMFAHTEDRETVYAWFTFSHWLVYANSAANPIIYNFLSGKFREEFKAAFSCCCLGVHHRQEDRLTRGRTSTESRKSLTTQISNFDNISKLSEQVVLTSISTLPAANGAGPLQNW
# Experiment: Measurement of OX2R agonist activity (intracellular calcium concentration change, Fluo4-AM, FDSS 7000)
# Assay type: cell-based
# Conditions: compound concentration 10 μM; human OX2R-expressing CHO-K1 cells; 1 μM human orexin A peptide = 100%, medium alone = 0%
# From the text: The following abbreviations in the description, the figures and the tables have the following meanings, respectively. • AZADOL (registered trademark): 2-Hydroxy-2-azaadamantane • Boc2O: di-tert-butyl dicarbonate • DIPEA: N,N-diisopropylethylamine • DCM: dichloromethane • DMAP: 4-dimethylaminopyridine • DMF: N,N-dimethylformamide • DMSO: dimethylsulfoxide • Deoxo-Fluor: bis(2-methoxyethyl)-aminosulfur trifluoride • HATU: O-(7-azabenzotriazol-1-yl)-N,N,N′,N′-tetramethyluronium hexafluorophosphate • LDA: lithium diisopropylamide • MeCN: acetonitrile • Me4tBuXPhos: 2-di-tert-butylphosphino-3,4,5,6-tetramethyl-2′,4′,6′-triisopropyl-1,1′-biphenyl • MTBE: methyl tert-butyl ether • NMP: N-methylpyrrolidone • PdCl2(PPh3)2: dichlorobis(triphenylphosphine)palladium(II) • Pd(dba)2: bis(dibenzylideneacetone)palladium(0) • Pd2(dba)3: tris(dibenzylideneacetone)dipalladium(0) • Pd(dppf)Cl2: [1,1′-bis(diphenylphosphino)ferrocene]dichloropalladium(II) • Pd(PPh3)4: tetrakis(triphenylphosphine)palladium(0) • TEA: triethylamine • TFA: trifluoroacetic acid • THF: tetrahydrofuran • Xphos: 2-dicyclohexylphosphino-2′,4′,6′-triisopropylbiphenyl • Xphos Pd G3: (2-dicyclohexylphosphino-2′,4′,6′-triisopropyl-1,1′-biphenyl)[2-(2′-amino-1,1′-biphenyl)]palladium(II) methanesulfonic acid salt • 10% Pd/C: Palladium 10% on Carbon (wetted with ca. 55% water) • APS: aminopropylated silica gel • ODS: octadecyl-silylated silica gel • Method A: column chromatography with an aminopropylated silica gel column followed by a silica gel column • Chiral preparative column chromatography: chiral preparative column chromatography using YMC CHIRALART Cellulose-SB • Ref. No.: Reference Example Number • Str.: structural formula • Ex. No.: Example Number • Phys. data: physical data • ^1H-NMR: hydrogen nuclear magnetic resonance spectrum • CDCl3: chloroform-d1 • MS: mass spectrometry (The measured values in the tables were measured by electrospray ionization or multiionization using electrospray ionization-atmospheric pressure chemical ionization.) • Act.: activation rate of test substance at a compound concentration of 10 μM calculated by setting the fluorescence intensity obtained when human orexin A peptide was added at a concentration of 1 μM as 100% and the fluorescence intensity obtained when the medium alone was added as 0% • CHO: Chinese hamster ovary • HEPES: 2-[4-(2-hydroxyethyl)-1-piperazinyl]ethanesulfonic acid
# A human OX2R sequence (Accession No. NM_001526.4) was inserted into the multiple cloning site of pcDNA3.4 (Life Technologies Japan Ltd.) to clone a plasmid vector for human OX2R expression. The plasmid was introduced into CHO-K1 cells using Lipofectamine 2000 (Life Technologies Japan Ltd.). Two days later, the transgenic CHO-K1 cells were passaged into 175T flasks and cultured selectively for 6 days. As a selection medium, Ham's F-12 Nutrient Mix (Life Technologies Japan Ltd.), containing Geneticin (registered trademark) (Life Technologies Japan Ltd.) at a final concentration of 1 mg/mL and inactivated fetal bovine serum (Biowest) at a final concentration of 10%, was used. After the selective culture, the cells were reseeded into 96-well plates, and a human OX2R-expressing cell line was obtained by limiting dilution.
# The agonist effects of test substances on human OX2R were evaluated using the intracellular calcium concentration-change upon stimulation as an indicator. A day before measurement of the intracellular calcium concentrations, human OX2R-expressing cells suspended in a medium were seeded into 384-well plates at 5×10^3 cells/50 μL/well and cultured overnight in an incubator set at 37° C. and 5% CO2. After incubation, the medium was removed and replaced with 20 μL of a loading buffer. […]
row,Structure (SMILES),Act. (%): activation rate of test substance
1,"COc1ccc(C[C@]2(C(=O)N(C)OC)CC[C@H](NS(C)(=O)=O)C2)cc1-c1ncc(F)cn1 [Example 56, (1R,3S)-1-(3-(5-Fluoropyrimidin-2-yl)-4-methoxybenzyl)-N-methoxy-N-methyl-3-(methylsulfonamido)cyclopentane-1-carboxamide]",51%
2,"CCS(=O)(=O)N[C@H]1CC[C@](Cc2ccc(F)c(-c3ncc(F)cn3)c2)(C(=O)N(C)OC)C1 [Example 52, (1R,3S)-3-(Ethylsulfonamido)-1-(4-fluoro-3-(5-fluoropyrimidin-2-yl)benzyl)-N-methoxy-N-methylcyclopentane-1-carboxamide]",99%
3,"CON(C)C(=O)C1(Cc2cccc(-c3ncccn3)c2)CCC(NS(C)(=O)=O)C1 (single isomer, unassigned) [Example 46, N-Methoxy-N-methyl-3-(methylsulfonamido)-1-(3-(pyrimidin-2-yl)benzyl)cyclopentane-1-carboxamide]",93%
4,"CON(C)C(=O)[C@@]1(Cc2cccc(-c3ccc(F)cn3)c2)CC[C@H](NS(C)(=O)=O)C1 (relative stereo) [Example 12, (1R*,3S*)-1-(3-(5-Fluoropyridin-2-yl)benzyl)-N-methoxy-N-methyl-3-(methylsulfonamido)cyclopentane-1-carboxamide]",86%
5,"CON(C)C(=O)[C@]1(Cc2cccc(-c3ncccn3)c2)C[C@@H](NS(C)(=O)=O)C(F)(F)C1 (relative stereo) [Example 40, (1R*,4R*)-3,3-Difluoro-N-methoxy-N-methyl-4-(methylsulfonamido)-1-(3-(pyrimidin-2-yl)benzyl)cyclopentane-1-carboxamide]",88%
6,"CS(=O)(=O)N[C@H]1CC[C@](Cc2cccc(-c3ccccc3)c2)(C(=O)N2CCCO2)C1 (relative stereo) [Example 7, N-((1S*,3R*)-3-([1,1′-Biphenyl]-3-ylmethyl)-3-(isoxazolidine-2-carbonyl)cyclopentyl)methanesulfonamide]",70%
7,CS(=O)(=O)N[C@H]1CC[C@](Cc2cccc(-c3ccccc3)c2)(C(=O)N2CCC(F)(F)C2)C1 (relative stereo) [Example 75],23%
8,"CON(C)C(=O)[C@]1(Cc2cccc(-c3ncccn3)c2)C[C@@H](NS(C)(=O)=O)C(F)(F)C1 [Example 65, (1R,4R)-3,3-Difluoro-N-methoxy-N-methyl-4-(methylsulfonamido)-1-(3-(pyrimidin-2-yl)benzyl)cyclopentane-1-carboxamide]",86%
9,"CON(C)C(=O)[C@@]1(Cc2cc(-c3ncccn3)ccc2F)C[C@H](F)[C@H](NS(=O)(=O)C(F)(F)F)C1 (relative stereo) [Example 38, (1R*,3S*,4R*)-3-Fluoro-1-(2-fluoro-5-(pyrimidin-2-yl)benzyl)-N-methoxy-N-methyl-4-((trifluoromethyl)sulfonamido)cyclopentane-1-carboxamide]",93%
10,"CO[C@H]1C[C@](Cc2cccc(-c3ncc(F)cn3)c2)(C(=O)N(C)OC)C[C@H]1NS(C)(=O)=O [Example 67, (1R,3S,4R)-1-(3-(5-Fluoropyrimidin-2-yl)benzyl)-N,3-dimethoxy-N-methyl-4-(methylsulfonamido)cyclopentane-1-carboxamide]",88%
11,CON(C)C(=O)[C@@]1(Cc2ccc(F)c(-c3ccc(F)cc3)c2)CC[C@H](NS(C)(=O)=O)C1 (relative stereo) [Example 4],82%
12,"CON(C)C(=O)C1(Cc2cccc(-c3ncccn3)c2)CCC(NS(C)(=O)=O)C1 (single isomer, unassigned) [Example 47, N-Methoxy-N-methyl-3-(methylsulfonamido)-1-(3-(pyrimidin-2-yl)benzyl)cyclopentane-1-carboxamide]",52%
13,"CS(=O)(=O)N[C@H]1CC[C@](Cc2cccc(-c3ccccc3)c2)(C(=O)NCCO)C1 (relative stereo) [Example 73, (1R*,3S*)-1-([1,1′-Biphenyl]-3-ylmethyl)-N-(2-hydroxyethyl)-3-(methylsulfonamido)cyclopentane-1-carboxamide]",36%
14,"CON(C)C(=O)[C@@]1(Cc2ccc(Cl)c(-c3ncc(F)cn3)c2)C[C@H](F)[C@H](NS(C)(=O)=O)C1 [Example 62, (1R,3S,4R)-1-(4-Chloro-3-(5-fluoropyrimidin-2-yl)benzyl)-3-fluoro-N-methoxy-N-methyl-4-(methylsulfonamido)cyclopentane-1-carboxamide]",96%
15,"CON(C)C(=O)[C@@]1(Cc2cccc(-c3ncc(F)cn3)c2)C[C@H](F)[C@H](NS(=O)(=O)C2CC2)C1 [Example 60, (1R,3R,4S)-3-(Cyclopropanesulfonamido)-4-fluoro-1-(3-(5-fluoropyrimidin-2-yl)benzyl)-N-methoxy-N-methylcyclopentane-1-carboxamide]",94%
16,CON(C)C(=O)[C@]1(Cc2cccc(-c3ncc(F)cn3)c2)C[C@@H](NS(=O)(=O)N(C)C)C(F)(F)C1 (relative stereo) [Example 41],93%
17,"CON(C)C(=O)[C@@]1(Cc2ccc(Cl)c(-c3ncc(F)cn3)c2)CC[C@H](NS(C)(=O)=O)C1 [Example 49, (1R,3S)-1-(4-Chloro-3-(5-fluoropyrimidin-2-yl)benzyl)-N-methoxy-N-methyl-3-(methylsulfonamido)cyclopentane-1-carboxamide]",88%
18,"CCS(=O)(=O)N[C@@H]1C[C@@](Cc2cc(-c3ncccn3)ccc2F)(C(=O)N(C)OC)C[C@@H]1F [Example 61, (1R,3R,4S)-3-(Ethylsulfonamido)-4-fluoro-1-(2-fluoro-5-(pyrimidin-2-yl)benzyl)-N-methoxy-N-methylcyclopentane-1-carboxamide]",105%
19,"CON(C)C(=O)[C@@]1(Cc2ccc(F)c(-c3ncc(F)cn3)c2)CC[C@H](NS(C)(=O)=O)C1 [Example 48, (1R,3S)-1-(4-Fluoro-3-(5-fluoropyrimidin-2-yl)benzyl)-N-methoxy-N-methyl-3-(methylsulfonamido)cyclopentane-1-carboxamide]",101%
20,"CON(C)C(=O)[C@@]1(Cc2cccc(-c3ncc(F)cn3)c2)C[C@H](F)[C@H](NS(C)(=O)=O)C1 [Example 57, (1R,3S,4R)-3-Fluoro-1-(3-(5-fluoropyrimidin-2-yl)benzyl)-N-methoxy-N-methyl-4-(methylsulfonamido)cyclopentane-1-carboxamide]",92%
21,"CON(C)C(=O)[C@@]1(Cc2cccc(-c3ncccn3)c2)C[C@@H](F)[C@H](NS(C)(=O)=O)C1 (relative stereo) [Example 32, (1R*,3R*,4R*)-3-Fluoro-N-methoxy-N-methyl-4-(methylsulfonamido)-1-(3-(pyrimidin-2-yl)benzyl)cyclopentane-1-carboxamide]",89%
